Laboratory results reported in patent US9346821B2, “Heterocyclic carboxylic acid ester derivative” (AJINOMOTO CO., INC., priority 2011, dated 2016).
Structures can show the parent of a compound that is named as a salt.

Tests used:
[1] = target: recombinant human enteropeptidase (Homo sapiens (Human), UniProt P98073); assay: Measurement of enteropeptidase inhibitory activity; format: biochemical; settings: for Ki: recombinant human enteropeptidase, Gly-Asp-Asp-Asp-Asp-Lys-β-Naphtylamide substrate, Dixon plot
Sequence of recombinant human enteropeptidase (P98073 whole entry): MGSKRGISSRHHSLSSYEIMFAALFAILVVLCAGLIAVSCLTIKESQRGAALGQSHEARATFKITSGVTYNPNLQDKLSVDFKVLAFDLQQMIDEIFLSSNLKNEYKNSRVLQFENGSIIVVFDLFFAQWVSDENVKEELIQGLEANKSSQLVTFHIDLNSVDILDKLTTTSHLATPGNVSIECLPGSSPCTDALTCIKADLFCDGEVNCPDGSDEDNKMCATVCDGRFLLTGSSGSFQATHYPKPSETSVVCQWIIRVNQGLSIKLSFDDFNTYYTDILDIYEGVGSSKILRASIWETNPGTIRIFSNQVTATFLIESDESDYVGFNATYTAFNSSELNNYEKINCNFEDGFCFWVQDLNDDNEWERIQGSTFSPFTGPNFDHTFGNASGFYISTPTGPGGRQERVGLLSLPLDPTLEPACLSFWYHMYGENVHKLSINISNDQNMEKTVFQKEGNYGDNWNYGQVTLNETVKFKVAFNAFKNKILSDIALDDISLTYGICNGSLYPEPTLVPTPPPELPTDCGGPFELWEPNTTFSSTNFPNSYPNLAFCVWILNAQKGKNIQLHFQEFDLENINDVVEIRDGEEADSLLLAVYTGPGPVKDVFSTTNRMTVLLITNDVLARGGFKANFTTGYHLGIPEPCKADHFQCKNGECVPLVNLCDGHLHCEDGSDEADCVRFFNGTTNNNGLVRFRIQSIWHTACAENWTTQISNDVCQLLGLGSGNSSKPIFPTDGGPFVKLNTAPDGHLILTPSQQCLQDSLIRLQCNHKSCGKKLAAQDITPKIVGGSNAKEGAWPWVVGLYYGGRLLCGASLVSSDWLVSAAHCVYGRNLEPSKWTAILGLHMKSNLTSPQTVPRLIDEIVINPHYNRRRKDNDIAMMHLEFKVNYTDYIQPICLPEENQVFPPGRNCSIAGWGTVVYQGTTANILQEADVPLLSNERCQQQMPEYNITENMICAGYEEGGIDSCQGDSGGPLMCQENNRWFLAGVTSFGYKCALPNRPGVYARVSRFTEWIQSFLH
Description: Measurement of Enteropeptidase Inhibitory Activity
Using a 96 well plate (#3915, Costar), a test compound (25 μL), 400 mM Tris-HCl buffer (pH 8.0, 25 μL) and 0.5 mg/mL fluorescence enzyme substrate (Gly-Asp-Asp-Asp-Asp-Lys-β-Naphtylamide, 25 μL) were mixed, and recombinant human enteropeptidase (R&D Systems, Inc., 25 μL) was added. Using a fluorescence plate reader fmax (Molecular Devices, Inc.), the reaction rate was measured from the time-course changes at excitation wavelength 320 nm and fluorescence wavelength 405 nm. The Ki value was calculated from the concentration of the test compound, reciprocal of reaction rate, and Km value of the enzyme substrate, and by using Dixon plot.

[2] = target: human trypsin (Homo sapiens, UniProt P07477); assay: Measurement of trypsin inhibitory activity; format: biochemical; settings: for Ki: human trypsin, Boc-Phe-Ser-Arg-AMC substrate, Dixon plot
Description: Measurement of Trypsin Inhibitory Activity
Using a 96 well plate (#3915, Costar), a test compound (25 μL) was mixed with 20 μM fluorescence enzyme substrate (Boc-Phe-Ser-Arg-AMC, 50 μL) mixed with 200 mM Tris-HCl buffer (pH 8.0), and human trypsin (Sigma, 25 μL) was added. Using a fluorescence plate reader fmax (Molecular Devices, Inc.), the reaction rate was measured from the time-course changes at excitation wavelength 355 nm and fluorescence wavelength 460 nm. The Ki value was calculated from the concentration of the test compound, reciprocal of reaction rate, and Km value of the enzyme substrate, and by using Dixon plot.

[3] = system: KK-A^y/JCL mice; assay: Evaluation of antidiabetic action (Experimental Example 4); format: in vivo; settings: mixed in feed for one week, versus control group
Excerpt: Evaluation of Antidiabetic Action KK-A^y/JCL mice (male, 5- to 7-week-old, CLEA Japan, Inc.) known to spontaneously develop obese type 2 diabetes were purchased and, after one week of preliminary rearing period, grouped (6 per group) with the body weight and non-fasting blood glucose levels as indices. The animals were individually housed in a polycarbonate cage and allowed to drink water freely from a watering bottle. […] CRF-1 alone was given to the control group. After one week of dosing period, the blood (6 μL) was drawn from the tail vein of the animals, and the blood glucose level was measured by ACCU-CHEK Aviva (Roche Diagnostics K.K.). A significant difference from the control group was detected by Dunnett's multiple comparison test or Student's t-test (significance level less than 5%).

SMILES | Ki [1] | Ki [2] | enteropeptidase inhibitory activity (in words) ([1]; summary statement) | trypsin inhibitory activity (in words) ([2]; summary statement) | hypoglycemic action [3]
C=CCN(C(=O)CN1CCc2cc(C(=O)Oc3ccc(C(=N)N)cc3F)sc2C1)[C@@H](CCC(=O)O)C(=O)O [B-45, N-allyl-N-({2-[(4-amidino-2-fluorophenoxy)carbonyl]-4,5-dihydrothieno[2,3-c]pyridin-6(7H)-yl}acetyl)-L-glutamic acid bis(trifluoroacetate)] | 0.62 nM | 0.71 nM | – | – | –
CC(C)C[C@@H](C(=O)N[C@@H](CC(=O)O)C(=O)O)N(C)Cc1ccc(C(=O)Oc2ccc(C(=N)N)cc2F)s1 [B-35] | 0.53 nM | 0.81 nM | – | – | –
C=CCN(CC(=O)O)C(=O)[C@@H]1CSCN1Cc1ccc(C(=O)Oc2ccc(C(=N)N)cc2F)s1 [B-21] | 1 nM | 0.38 nM | – | – | –
C=CCN(CC(=O)N[C@@H](CC(=O)O)C(=O)O)C(=O)CCc1ccc(C(=O)Oc2ccc(C(=N)N)cc2F)s1 [B-56, N—[N-allyl-N-(3-{5-[(4-amidino-2-fluorophenoxy)carbonyl]thiophen-2-yl}propanoyl)glycyl]-L-aspartic acid trifluoroacetate] | 0.77 nM | 0.43 nM | – | – | –
CC(C)[C@@H](C(=O)N[C@@H](CCC(=O)O)C(=O)O)N(C)Cc1ccc(C(=O)Oc2ccc(C(=N)N)cc2F)s1 [B-26] | 1 nM | 0.38 nM | – | – | –
N=C(N)c1ccc(OC(=O)c2ccc(Cn3cccc3C(=O)O)s2)c(F)c1 [B-42, N-{[5-(4-amidino-2-fluorophenoxycarbonyl)thiophen-2-yl]methyl}-1H-pyrrole-2-carboxylic acid trifluoroacetate] | 0.61 nM | 0.82 nM | – | – | –
CC(C)[C@@H](C(=O)N[C@@H](CC(=O)O)C(=O)O)N(C)Cc1ccc(C(=O)Oc2ccc(C(=N)N)cc2F)s1 [B-23] | 0.75 nM | 0.44 nM | – | – | –
N=C(N)c1ccc(OC(=O)c2ccc(CN3CCCC[C@H]3C(=O)N[C@@H](CC(=O)O)C(=O)O)s2)c(F)c1 [B-18] | 0.44 nM | 0.92 nM | – | – | –
N=C(N)c1ccc(OC(=O)c2ccc(CCC(=O)N[C@@H](CC(=O)O)C(=O)O)s2)c(F)c1.O=C(O)C(F)(F)F [reference compound A, N-{3-[5-(4-amidino-2-fluorophenoxycarbonyl)thiophen-2-yl]propanoyl}-L-aspartic acid trifluoroacetate, reference compound] | 1.36 nM | – | superior | superior | significant hypoglycemic action
CC(C)[C@H](C(=O)N[C@@H](CC(=O)O)C(=O)O)N(C)Cc1ccc(C(=O)Oc2ccc(C(=N)N)cc2F)s1 [B-27, N—(N-{[5-(4-amidino-2-fluorophenoxycarbonyl)thiophen-2-yl]methyl}-N-methyl-D-valyl)-L-aspartic acid bis(trifluoroacetate)] | 0.78 nM | 0.68 nM | – | – | –
CN(Cc1ccc(C(=O)Oc2ccc(C(=N)N)cc2F)s1)[C@H](Cc1ccccc1)C(=O)N[C@H](CC(=O)O)C(=O)O [B-59, N—(N-{5-[(4-amidino-2-fluorophenoxy)carbonyl]thiophen-2-yl}methyl-N-methyl-D-phenylalanyl)-D-aspartic acid bis(trifluoroacetate)] | 0.98 nM | 3.31 nM | – | – | –
N=C(N)c1ccc(OC(=O)c2cc3c(s2)CN(CC(=O)O)CC3)c(F)c1 [B-43, {2-[(4-amidino-2-fluorophenoxy)carbonyl]-4,5-dihydrothieno[2,3-c]pyridin-6(7H)-yl}acetic acid bis(trifluoroacetate)] | 0.69 nM | 0.56 nM | – | – | –
N=C(N)c1ccc(OC(=O)c2ccc(CN3CCC[C@@H]3C(=O)N(CCC(=O)O)CC(=O)O)s2)c(F)c1 [B-60, N-{5-[(4-amidino-2-fluorophenoxy)carbonyl]thiophen-2-yl}methyl-D-proline N-(2-carboxyethyl)-N-carboxymethylamide bis(trifluoroacetate)] | 0.53 nM | 0.42 nM | – | – | –
N=C(N)c1ccc(OC(=O)c2ccc(CNC3(C(=O)N[C@@H](CC(=O)O)C(=O)O)CC3)s2)c(F)c1 [B-37, N-(1-{[5-(4-amidino-2-fluorophenoxycarbonyl)thiophen-2-yl]methylamino}cyclopropanecarbonyl)-L-aspartic acid bis(trifluoroacetate)] | 1.27 nM | 1.57 nM | – | – | –
CN(Cc1ccc(C(=O)Oc2ccc(C(=N)N)cc2F)s1)C(=O)N[C@@H](CC(=O)O)C(=O)O [B-46] | 0.38 nM | 0.87 nM | – | – | –
N=C(N)c1ccc(OC(=O)c2ccc(CN3CCC[C@@H]3C(=O)N[C@@H](CC(=O)O)C(=O)O)s2)c(F)c1 [B-13] | 0.43 nM | 0.29 nM | – | – | –

SMILES | Ki [1] | Ki [2] | enteropeptidase inhibitory activity (in words) ([1]; summary statement) | trypsin inhibitory activity (in words) ([2]; summary statement) | hypoglycemic action [3]
C=CCN(CC(=O)O)C(=O)[C@@H]1CCCN1Cc1ccc(C(=O)Oc2ccc(C(=N)N)cc2F)s1 [B-11] | 0.78 nM | 0.64 nM | – | – | –
CN(Cc1ccc(C(=O)Oc2ccc(C(=N)N)cc2)o1)C(=O)N[C@@H](CC(=O)O)C(=O)O [A-20] | 0.94 nM | 0.54 nM | – | – | –
N=C(N)c1ccc(OC(=O)c2ccc(CN3CCC[C@@H]3C(=O)N[C@@H](CS(=O)(=O)O)C(=O)O)o2)cc1 [A-5] | 0.82 nM | 0.24 nM | – | – | –
CC(C)C[C@@H](C(=O)N[C@H](CCC(=O)O)C(=O)O)N(C)Cc1ccc(C(=O)Oc2ccc(C(=N)N)cc2F)s1 [B-36] | 0.61 nM | 0.89 nM | – | – | –
N=C(N)c1ccc(OC(=O)c2ccc(CN3CCC[C@H]3C(=O)N[C@@H](CS(=O)(=O)O)C(=O)O)s2)c(F)c1 [B-10] | 0.24 nM | 0.25 nM | – | – | –
N=C(N)c1ccc(OC(=O)c2ccc(CN3CCC[C@H]3C(=O)N[C@@H](CS(=O)(=O)O)C(=O)O)o2)cc1 [A-10] | 0.65 nM | 0.97 nM | – | – | –
CC(C)[C@@H](C(=O)N[C@@H](CC(=O)O)C(=O)O)N(C)Cc1ccc(C(=O)Oc2ccc(C(=N)N)cc2)o1 [A-14, N—(N-{[5-(4-amidinophenoxycarbonyl)furan-2-yl]methyl}-N-methyl-L-valyl)-L-aspartic acid bis(trifluoroacetate)] | 0.56 nM | 0.45 nM | – | – | –
N=C(N)c1ccc(OC(=O)c2ccc(CN3CCC[C@@H]3C(=O)N[C@@H](CS(=O)(=O)O)C(=O)O)s2)cc1 [B-12] | 0.95 nM | 1.14 nM | – | – | –
CC(C)N(Cc1ccc(C(=O)Oc2ccc(C(=N)N)cc2)o1)C(=O)N[C@@H](CC(=O)O)C(=O)O [A-21] | 0.38 nM | 0.84 nM | – | – | –
N=C(N)c1ccc(OC(=O)c2ccc(CN3CCC[C@@H]3C(=O)N[C@H](CC(=O)O)C(=O)O)s2)c(F)c1 [B-15] | 0.69 nM | 0.52 nM | – | – | –
N=C(N)c1ccc(OC(=O)c2ccc(CN3CCC[C@@H]3C(=O)N[C@@H](CS(=O)(=O)O)C(=O)O)s2)c(F)c1 [B-14] | 0.24 nM | 0.19 nM | – | – | –
CC(C)N(Cc1ccc(C(=O)Oc2ccc(C(=N)N)cc2F)s1)C(=O)N[C@@H](CC(=O)O)C(=O)O [B-47] | 0.33 nM | 0.69 nM | – | – | –
CC(C)C[C@@H](C(=O)N[C@@H](CCC(=O)O)C(=O)O)N(C)Cc1ccc(C(=O)Oc2ccc(C(=N)N)cc2F)s1 [B-32] | 0.9 nM | 0.7 nM | – | – | –
N=C(N)c1ccc2cc(OC(=O)c3ccc(CN4CCC[C@@H]4C(=O)N[C@@H](CS(=O)(=O)O)C(=O)O)o3)ccc2c1 [A-6] | 0.67 nM | 0.08 nM | – | – | –
N=C(N)c1ccc(OC(=O)c2ccc(CN3CSC[C@H]3C(=O)N[C@@H](CC(=O)O)C(=O)O)s2)c(F)c1 [B-20] | 0.15 nM | 0.21 nM | – | – | –
N=C(N)c1ccc(OC(=O)c2cc3c(s2)CN(C(=O)N[C@@H](CC(=O)O)C(=O)O)CC3)c(F)c1 [B-55, N-{[2-(4-amidino-2-fluorophenoxycarbonyl)-4,5,6,7-tetrahydrothieno[2,3-c]pyridin-6-yl]carbonyl}-L-aspartic acid trifluoroacetate] | 0.2 nM | 0.24 nM | – | – | –
